PubChem BioAssay (NCI)
Values joined by “and” are separate entries in the source; they are usually repeats but may differ in a detail not shown here. Equal entries are not always repeated.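 Values below derive from 48-hour exposures of cells grown in 96-well plates, with endpoints linearly interpolated between the two concentrations bracketing the appropriate inhibition level. The concentration for 50% growth inhibition is given as GI50. TGI: concentration producing complete growth inhibition.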

Tests used:
Test in all cases: NCI anticancer screen, dose series, 48 h
786-0 renal = system: 786-0 renal
A498 renal = system: A498 renal
ACHN renal = system: ACHN renal
BT-549 breast = system: BT-549 breast
CAKI-1 renal = system: CAKI-1 renal
CCRF-CEM leukemia = system: CCRF-CEM leukemia
COLO 205 colon = system: COLO 205 colon
DU-145 prostate = system: DU-145 prostate
EKVX NSCLC = system: EKVX NSCLC
HCC-2998 colon = system: HCC-2998 colon
HCT-116 colon = system: HCT-116 colon
HCT-15 colon = system: HCT-15 colon
HL-60(TB) leukemia = system: HL-60(TB) leukemia
HOP-62 NSCLC = system: HOP-62 NSCLC
HOP-92 NSCLC = system: HOP-92 NSCLC
HS 578T breast = system: HS 578T breast
HT29 colon = system: HT29 colon
K-562 leukemia = system: K-562 leukemia
KM12 colon = system: KM12 colon
LOX IMVI melanoma = system: LOX IMVI melanoma
M14 melanoma = system: M14 melanoma
MALME-3M melanoma = system: MALME-3M melanoma
MCF7 breast = system: MCF7 breast
MDA-MB-231 breast = system: MDA-MB-231 breast
MDA-MB-435 = system: MDA-MB-435
MDA-N = system: MDA-N
MOLT-4 leukemia = system: MOLT-4 leukemia
NCI-H226 lung = system: NCI-H226 lung
NCI-H23 lung = system: NCI-H23 lung
NCI-H460 lung = system: NCI-H460 lung
NCI-H522 lung = system: NCI-H522 lung
NCI/ADR-RES ovarian = system: NCI/ADR-RES ovarian
OVCAR-3 ovarian = system: OVCAR-3 ovarian
OVCAR-4 ovarian = system: OVCAR-4 ovarian
OVCAR-5 ovarian = system: OVCAR-5 ovarian
OVCAR-8 ovarian = system: OVCAR-8 ovarian
PC-3 prostate = system: PC-3 prostate
RPMI-8226 leukemia = system: RPMI-8226 leukemia
RXF 393 renal = system: RXF 393 renal
SF-268 CNS = system: SF-268 CNS
SF-295 CNS = system: SF-295 CNS
SF-539 CNS = system: SF-539 CNS
SK-MEL-2 melanoma = system: SK-MEL-2 melanoma
SK-MEL-28 melanoma = system: SK-MEL-28 melanoma
SK-MEL-5 melanoma = system: SK-MEL-5 melanoma
SNB-19 CNS = system: SNB-19 CNS
SNB-75 CNS = system: SNB-75 CNS
SR leukemia = system: SR leukemia
SW-620 colon = system: SW-620 colon
T-47D breast = system: T-47D breast
TK-10 renal = system: TK-10 renal
U251 CNS = system: U251 CNS
UACC-257 melanoma = system: UACC-257 melanoma
UACC-62 melanoma = system: UACC-62 melanoma
UO-31 renal = system: UO-31 renal
A549 NSCLC = system: A549 NSCLC
IGROV1 ovarian = system: IGROV1 ovarian
SK-OV-3 ovarian = system: SK-OV-3 ovarian
SN12C renal = system: SN12C renal

`COc1cc2cc(C(=O)N3C[C@H](CCl)c4c3cc(O)c3ccccc43)[nH]c2c(OC)c1OC` was tested, and the GI50 (786-0 renal) was 17.4 nM, the TGI (786-0 renal) was 493 nM and 51.9 nM and the TGI (A498 renal) was 684 nM. For the same compound, the TGI (ACHN renal) was 581 nM, the GI50 (BT-549 breast) was 31.2 nM and the TGI (BT-549 breast) was 1560 nM and 460 nM. The GI50 (CAKI-1 renal) was < 10 nM, the GI50 (CCRF-CEM leukemia) was < 10 nM and the TGI (CCRF-CEM leukemia) was 48 nM. For the same compound, the GI50 (COLO 205 colon) was 118 nM, the TGI (COLO 205 colon) was 1800 nM and 483 nM and the GI50 (DU-145 prostate) was < 10 nM. For the same compound, the TGI (DU-145 prostate) was 1530 nM and 213 nM, the GI50 (EKVX NSCLC) was 139 nM and the TGI (EKVX NSCLC) was 953 nM and 641 nM. For the same compound, the GI50 (HCC-2998 colon) was 28.6 nM, the TGI (HCC-2998 colon) was 654 nM and 1130 nM and the GI50 (HCT-116 colon) was 16.5 nM. For the same compound, the TGI (HCT-116 colon) was 59000 nM, the GI50 (HCT-15 colon) was 22 nM and the TGI (HL-60(TB) leukemia) was 10.5 nM. For the same compound, the GI50 (HOP-62 NSCLC) was 15.7 nM, the TGI (HOP-62 NSCLC) was 198 nM and 1060 nM and the TGI (HOP-92 NSCLC) was 2650 nM. It also gave a TGI (HS 578T breast) of 652 nM, a GI50 (HT29 colon) of 2640 nM and a TGI (HT29 colon) of 6820 nM. For the same compound, the GI50 (K-562 leukemia) was 46 nM, the GI50 (KM12 colon) was 42.5 nM and the TGI (KM12 colon) was 677 nM and 1370 nM. The GI50 (LOX IMVI melanoma) was 20.1 nM, the TGI (LOX IMVI melanoma) was 1830 nM and 12300 nM and the GI50 (M14 melanoma) was 26.8 nM. For the same compound, the GI50 (MALME-3M melanoma) was 25.9 nM, the TGI (MALME-3M melanoma) was 442 nM and 82.7 nM and the GI50 (MCF7 breast) was < 10 nM. For the same compound, the TGI (MCF7 breast) was 10200 nM, the TGI (MDA-MB-231 breast) was 3940 nM and the GI50 (MDA-MB-435) was 20.1 nM. For the same compound, the TGI (MDA-MB-435) was 634 nM and 91.2 nM, the TGI (MDA-N) was 2130 nM and the GI50 (MOLT-4 leukemia) was < 10 nM. The TGI (MOLT-4 leukemia) was 6220 nM, the GI50 (NCI-H226 lung) was 1790 nM and the TGI (NCI-H226 lung) was 504 nM and 3380 nM. For the same compound, the GI50 (NCI-H23 lung) was < 10 nM, the TGI (NCI-H23 lung) was 234 nM and 92.7 nM and the GI50 (NCI-H460 lung) was < 10 nM. The TGI (NCI-H460 lung) was 4340 nM and 23500 nM, the GI50 (NCI-H522 lung) was 10.4 nM and the GI50 (NCI/ADR-RES ovarian) was 1340 nM. For the same compound, the TGI (NCI/ADR-RES ovarian) was 563 nM and 4620 nM, the GI50 (OVCAR-3 ovarian) was 47.4 nM and the TGI (OVCAR-3 ovarian) was 14400 nM. The GI50 (OVCAR-4 ovarian) was 61.2 nM, the TGI (OVCAR-4 ovarian) was 2760 nM and 14600 nM and the GI50 (OVCAR-5 ovarian) was 23.7 nM. The TGI (OVCAR-5 ovarian) was 2150 nM and 13700 nM, the GI50 (OVCAR-8 ovarian) was 1670 nM and the TGI (OVCAR-8 ovarian) was 1130 nM and 3530 nM. For the same compound, the GI50 (PC-3 prostate) was 35.5 nM, the TGI (PC-3 prostate) was 2270 nM and 18900 nM and the GI50 (RPMI-8226 leukemia) was < 10 nM. The TGI (RXF 393 renal) was 194 nM, the GI50 (SF-268 CNS) was 16.9 nM and the TGI (SF-268 CNS) was 563 nM and 4990 nM. The TGI (SF-295 CNS) was 1230 nM, the TGI (SF-539 CNS) was 192 nM and the TGI (SK-MEL-2 melanoma) was 461 nM. It also gave a TGI (SK-MEL-28 melanoma) of 1990 nM, a TGI (SK-MEL-5 melanoma) of 43.9 nM and a GI50 (SNB-19 CNS) of 39.1 nM. For the same compound, the TGI (SNB-19 CNS) was 1420 nM and 1670 nM, the TGI (SNB-75 CNS) was 449 nM and the TGI (SR leukemia) was 67.2 nM. For the same compound, the GI50 (SW-620 colon) was < 10 nM, the GI50 (T-47D breast) was 25.6 nM and the TGI (T-47D breast) was 362 nM. For the same compound, the GI50 (TK-10 renal) was 57.1 nM, the TGI (TK-10 renal) was > 100000 nM and the GI50 (U251 CNS) was 19 nM. For the same compound, the TGI (U251 CNS) was 3230 nM and 3060 nM, the GI50 (UACC-257 melanoma) was 135 nM and 45.9 nM and the GI50 (UACC-62 melanoma) was 35.1 nM. For the same compound, the TGI (UO-31 renal) was 543 nM.
For `Oc1cccc(-c2cn3cc(Cl)ccc3n2)c1`, the TGI (786-0 renal) was > 100000 nM, the TGI (A498 renal) was > 100000 nM and the TGI (A549 NSCLC) was > 100000 nM. For the same compound, the TGI (ACHN renal) was > 100000 nM, the TGI (BT-549 breast) was > 100000 nM and the TGI (CAKI-1 renal) was > 100000 nM. For the same compound, the TGI (CCRF-CEM leukemia) was 81500 nM, the TGI (COLO 205 colon) was > 100000 nM and the TGI (DU-145 prostate) was > 100000 nM. For the same compound, the TGI (EKVX NSCLC) was 83500 nM, the TGI (HCC-2998 colon) was > 100000 nM and the TGI (HCT-116 colon) was > 100000 nM. The TGI (HCT-15 colon) was > 100000 nM, the TGI (HL-60(TB) leukemia) was 56200 nM and the TGI (HOP-62 NSCLC) was > 100000 nM. The TGI (HOP-92 NSCLC) was > 100000 nM, the TGI (HS 578T breast) was > 100000 nM and the TGI (HT29 colon) was > 100000 nM. The TGI (IGROV1 ovarian) was > 100000 nM, the TGI (K-562 leukemia) was > 100000 nM and the TGI (KM12 colon) was > 100000 nM. The TGI (LOX IMVI melanoma) was > 100000 nM, the TGI (M14 melanoma) was > 100000 nM and the TGI (MALME-3M melanoma) was > 100000 nM. The TGI (MCF7 breast) was > 100000 nM, the TGI (MDA-MB-231 breast) was > 100000 nM and the TGI (MDA-MB-435) was > 100000 nM. The TGI (MDA-N) was > 100000 nM, the TGI (MOLT-4 leukemia) was > 100000 nM and the TGI (NCI-H226 lung) was > 100000 nM. The TGI (NCI-H23 lung) was > 100000 nM, the TGI (NCI-H460 lung) was > 100000 nM and the TGI (NCI-H522 lung) was 43300 nM. For the same compound, the TGI (NCI/ADR-RES ovarian) was > 100000 nM, the TGI (OVCAR-3 ovarian) was > 100000 nM and the TGI (OVCAR-4 ovarian) was > 100000 nM. The TGI (OVCAR-5 ovarian) was > 100000 nM, the TGI (OVCAR-8 ovarian) was > 100000 nM and the TGI (PC-3 prostate) was > 100000 nM. For the same compound, the TGI (RXF 393 renal) was 86000 nM, the TGI (SF-268 CNS) was > 100000 nM and the TGI (SF-295 CNS) was > 100000 nM. The TGI (SK-MEL-2 melanoma) was > 100000 nM, the TGI (SK-MEL-28 melanoma) was > 100000 nM and the TGI (SK-MEL-5 melanoma) was 35900 nM. The TGI (SK-OV-3 ovarian) was > 100000 nM, the TGI (SN12C renal) was > 100000 nM and the TGI (SNB-19 CNS) was > 100000 nM. The TGI (SR leukemia) was > 100000 nM, the TGI (SW-620 colon) was > 100000 nM and the TGI (T-47D breast) was 48200 nM. The TGI (TK-10 renal) was > 100000 nM, the TGI (U251 CNS) was > 100000 nM and the TGI (UACC-257 melanoma) was 77500 nM. For the same compound, the TGI (UACC-62 melanoma) was > 100000 nM and the TGI (UO-31 renal) was > 100000 nM.
